Results published in patent US20240423977A1, “FIVE-MEMBERED RING-FUSED SIX-MEMBERED RING COMPOUND, PREPARATION METHOD THEREFOR, AND PHARMACEUTICAL COMPOSITION AND USE THEREOF” (HANGZHOU POLYMED BIOPHARMACEUTICALS, INC., priority 2022, published 2024).

Legend:
[1] = target: IRAK4 protein in THP-1 cells (Homo sapiens (Human), UniProt Q9NWZ3); assay: PROTAC-induced IRAK4 protein degradation in THP-1 cells (Western Blot); type: cell-based; conditions: for DC50: concentration that degraded 50% of IRAK4, Western blotting, 24 hours after administration; for IRAK4 degradation rate 24 hours after administration of the compounds with a concentration of 1 μM: Western blotting
IRAK4 protein in THP-1 cells, sequence (Q9NWZ3 whole entry): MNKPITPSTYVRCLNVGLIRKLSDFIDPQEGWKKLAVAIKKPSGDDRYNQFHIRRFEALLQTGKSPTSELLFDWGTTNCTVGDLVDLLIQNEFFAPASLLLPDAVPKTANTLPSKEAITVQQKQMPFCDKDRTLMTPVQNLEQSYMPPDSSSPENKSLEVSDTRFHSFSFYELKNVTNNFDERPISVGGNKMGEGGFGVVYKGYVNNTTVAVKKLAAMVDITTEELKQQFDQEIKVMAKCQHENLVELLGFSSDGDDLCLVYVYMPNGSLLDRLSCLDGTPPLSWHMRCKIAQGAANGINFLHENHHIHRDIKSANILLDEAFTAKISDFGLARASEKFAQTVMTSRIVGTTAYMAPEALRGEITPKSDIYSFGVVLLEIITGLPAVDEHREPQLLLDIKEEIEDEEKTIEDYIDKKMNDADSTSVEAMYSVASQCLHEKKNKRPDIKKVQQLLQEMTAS
Description: 2.1 Based on the experimental method of Western Blot, specific antibodies were used to stain the THP-1 cell samples treated by gel electrophoresis, and the degrading activity of the compounds on the IRAK4 protein in THP-1 cells was determined by analyzing the position and depth of staining. The concentrations of compound for the detection included 0 μM, 0.3 μM, 1 μM and 3 μM, and the cells were treated by the compound for 8 hours, 16 hours, 24 hours, and 48 hours. Glyceraldehyde-3-phosphate dehydrogenase (GAPDH) is an internal reference protein in this experiment.
Electrophoresis buffer: 50 mL MOPS SDS Running Buffer (20×) and 50 mL 20×TBS Tween-20 buffer were diluted with deionized water to 1 L as the electrophoresis buffer;
5% skim milk (w/v): 2.5 g skim milk was diluted with 50 mL 1×TBS Tween-20 buffer to prepare 5% skim milk;
5% BSA (w/v): 2.5 g BSA was diluted with 50 mL 1×TBS Tween-20 buffer to prepare 5% BSA;
Anti-IRAK4 antibody was diluted with 5% BSA at 1:1000 into a primary antibody working solution;
Goat Anti-Rabbit IgG H&L (HRP) was diluted with 5% BSA at 1:2000 into a second antibody working solution; and
Goat Anti-Mouse IgG H&L (HRP) was diluted with 5% BSA at 1:2000 into a second antibody working solution.
THP-1 cells were plated in a 6-well plate at a density of 1.5×10^6 cells per ml and incubated for 2 hours in a cell culture incubator under 37° C. and 5% CO2. The compound was diluted with DMSO to 0.6 mM, 0.2 mM and 0.06 mM respectively. 10 μL of compound solution was added to the corresponding wells, and continued to incubate in the incubator for 16 hours, 24 hours and 48 hours respectively. The compound-treated THP-1 cells in the well were collected, added with 120 μL of RIPA lysate containing protease inhibitor, Phosphatase Inhibitor Cocktail 2 and Phosphatase Inhibitor Cocktail 3, lysed on wet ice for 30 minutes, and then the cells lysate was centrifuged at a high speed and a low temperature for 5 minutes to collect the supernatant. The protein concentration of the cell sample was determined according to the instructions in the Pierce™ BCA Protein Assay Kit.
The concentration of the sample was adjusted to be consistent using lysis buffer and NuPAGE® LDS sample buffer containing 1M DTT. The samples were heated at 95° C. for 5 minutes and centrifuged at a low temperature and at a high speed. 20 μL of the prepared protein sample and 4 μL of PageRuler Prestained Protein Ladder were added into the gel well for running at 80V voltage for 0.5 hours, then the voltage was adjusted to 120V for further running for 1.5 hours. The gel was removed and the proteins in the gel were transferred to the IBlotTM 2 transfer membrane set at 20V. After successful transfer, bands at 65 kDa-40 kDa and 40 kDa-30 kDa were cut respectively. The membranes were blocked with 5% skim milk for 1 hour at room temperature. The membranes were washed three times with 1× concentration of TBST, then incubated with IRAK4 antibody working solution overnight at 4° C. The IRAK4 antibody working solution was discarded, and the membranes were washed three times with 1×concentration of TBST, and incubated with Goat Anti-Rabbit IgG H&L (HRP) working solution and Goat Anti-Mouse IgG H&L (HRP) working solution at room temperature. After 1 hour of incubation, the antibody working solution was discarded and the membranes were washed three times with 1× concentration of TBST. According to the instructions of the kit SuperSignal™ West Femto Maximum Sensitivity Substrate, the reagents in the kit were mixed in equal volume proportions to prepare a luminescent liquid mixture. The membranes were incubated for 1 minute, then removed for exposure.
The results of Western blotting 24 hours after administration of the compounds with a concentration of 1 μM were shown in Table 3: […]

kinase IRAK4 = kinase IRAK4 (Homo sapiens (Human), UniProt Q9NWZ3); assay: Inhibitory effects of compounds on kinase activity (fluorescence microfluidic mobility detection, competitive with ATP); type: biochemical; conditions: IRAK4 6 nM, ATP 10 μM
kinase IRAK4, sequence (Q9NWZ3 whole entry): as above
Description: Based on an experimental method of fluorescence microfluidic mobility detection, an IC50 value of competitive binding of kinase IRAK4 to ATP by the compounds was determined. The initial detection concentration of the compounds was 10 μM, diluted 4-fold gradient down to […], and tested in duplicate. Among them, commercial staurosporine was the standard control substance in this experiment.
1) IRAK4 kinase was dissolved in kinase buffer (50 mM HEPES pH 7.5, 10 mM MgCl2, 2 mM DTT and 0.01% Brij-35) to a final concentration of 6 nM.
2) The substrate peptide FAM-P8 and ATP were dissolved in the above kinase buffer. The final concentrations of the IRAK4 substrate peptide FAM-P8 and ATP were 3 μM and 10 μM respectively.
3) Dilution of the compounds: the compound was first diluted to 50 μM, and then diluted down with a 4-fold gradient of DMSO. The solution without the compound and kinase is used as a blank control, corresponding to the “minimum value” shown below; and the solution without the compound but with kinase, adenosine 5′-triphosphate disodium salt hydrate, DMSO and buffer is used as a positive control, corresponding to the “maximum value” shown below. 4) Kinase reaction and termination: 10 μL of kinase buffer was added to a 384-well plate containing 5 μL of the compound to be tested, and incubated at room temperature for 10 minutes. Another 10 μL of buffer containing the substrate peptide and adenosine 5′-triphosphate disodium salt hydrate was added to the 384-well plate. After incubation at 28° C. for one hour, 25 μL stop solution (100 mM HEPES pH 7.5, 50 mM EDTA, 0.2% Coating Reagent #3 and 0.015% Brij-35) was added to each well to terminate the reaction.
5) Data reading: the CaliperEZ Reader II instrument was used to read the conversion rate data. Conditions: downstream voltage −500V, upstream voltage −2250V, base pressure −0.5 PSI, and screening pressure −1.2 PSI.
6) Data calculation: the conversion rate data was copied from CaliperEZ Reader II and converted into inhibition rate data. The calculation formula is as follows:
[formula] • IC50 values were fitted using XLFit excel add-in version 5.4.0.8,
Y=Bottom+(Top−Bottom)/(1+(IC50/X)^HillSlope) Fitting formula: […]

Row | Structure (SMILES) | DC50 [1] [nM] | IC50 (kinase IRAK4; Table 2, substrate FAM-P8 3 μM) [nM] | IC50 (kinase IRAK4; Table 1, class symbols) [nM] | IRAK4 degradation rate 24 hours after administration of the compounds with a concentration of 1 μM [1]
1 | COc1cc2nn(C3CC4(CCN(C(=O)C5CCN(c6ccc7c(c6)C(=O)N(C6CCC(=O)NC6=O)C7=O)CC5)CC4)C3)cc2cc1NC(=O)c1coc(N2CCOCC2)n1 (stereo not shown) [Compound I-54] | 6.2 | 11.6 | – | –
2 | COc1cc2nn(C3CC4(CCN(C(=O)C5CCN(c6ccc7c(c6)C(=O)N(C6CCC(=O)NC6=O)C7=O)CC5)CC4)C3)cc2cc1NC(=O)c1ccn(C(F)F)n1 (stereo not shown) [Compound I-47] | 5.53 | 9.17 | – | –
3 | COc1cc2nn(C3CC4(CCC(NC5CCN(c6ccc7c(c6)C(=O)N(C6CCC(=O)NC6=O)C7=O)CC5)CC4)C3)cc2cc1NC(=O)c1cccc(C(F)(F)F)n1 (stereo not shown) [Compound I-16] | 9.9 | 11.6 | – | –
4 | COc1cc2nn(C3CC4(CCN(C(=O)C5CCN(c6ccc7c(c6)C(=O)N([C@H]6CCC(=O)NC6=O)C7=O)CC5)CC4)C3)cc2cc1NC(=O)c1cccc(C(F)(F)F)n1 [Compound I-65] | 3.71 | 26.3 | – | –
5 | COc1cc2nn(C3CC4(CCN(C(=O)C5CCN(c6ccc7c(c6)C(=O)N(c6ccc(=O)[nH]n6)C7=O)CC5)CC4)C3)cc2cc1NC(=O)c1cccc(C(F)(F)F)n1 [Compound I-43] | > 1000 | 20.7 | – | –
6 | CC(C)(O)c1cc2nn(C3CC4(CCN(C(=O)C5CCN(c6ccc7c(c6)C(=O)N(C6CCC(=O)NC6=O)C7=O)CC5)CC4)C3)cc2cc1NC(=O)c1cccc(C(F)(F)F)n1 (stereo not shown) [Compound I-5] | 3.6 | 11.3 | – | –
7 | COc1cc2nn(C3CC4(CCN(C(=O)C5(O)CCN(c6ccc7c(c6)C(=O)N(C6CCC(=O)NC6=O)C7=O)CC5)CC4)C3)cc2cc1NC(=O)c1cccc(C(F)(F)F)n1 (stereo not shown) [Compound I-33] | 8.05 | 26.5 | – | –
8 | COc1cc2nn(C3CC4(CCN(C(=O)C5CCN(c6cc7c(cc6F)C(=O)N(C6CCC(=O)NC6=O)C7=O)CC5)CC4)C3)cc2cc1NC(=O)c1cccc(C(F)(F)F)n1 (stereo not shown) [Compound I-8] | 8.2 | 25.9 | < 100 | –
9 | COc1cc2nn(C3CC4(CCN(C(=O)[C@H]5CC[C@H](CNc6ccc7c(c6)C(=O)N(C6CCC(=O)NC6=O)C7=O)CC5)CC4)C3)cc2cc1NC(=O)c1cccc(C(F)(F)F)n1 (stereo partly shown) [Compound I-3] | 3.64 | 16 | < 100 | 75~100%
10 | COc1cc2nn(C3CC4(CCN(C(=O)C5CCN(c6ccc7c(c6)C(=O)N(C6CCC(=O)NC6=O)C7=O)CC5)CC4)C3)cc2cc1NC(=O)c1cnn2ccc(N3C[C@H]4C[C@@H]3CO4)nc12 (stereo partly shown) [Compound I-44] | 1.16 | 17 | – | –
11 | COc1cc2nn(C3CCN(C(=O)CN4CCN(c5ccc6c(c5)C(=O)N(C5CCC(=O)NC5=O)C6=O)CC4)CC3)cc2cc1NC(=O)c1cccc(C(F)(F)F)n1 (stereo not shown) [II-4] | 12.4 | 20 | < 100 | 50~75%
12 | COc1cc2nn(C3CCN(CC(=O)N4CCN(c5cc6c(cc5F)C(=O)N(C5CCC(=O)NC5=O)C6=O)CC4)CC3)cc2cc1NC(=O)c1cccc(C(F)(F)F)n1 (stereo not shown) [II-5] | 6.15 | 11 | < 100 | 75~100%
13 | COc1cc2nn(C3CC4(CCN(C(=O)[C@H]5CC[C@H](Nc6ccc7c(c6)C(=O)N([C@@H]6CCC(=O)NC6=O)C7=O)CC5)CC4)C3)cc2cc1NC(=O)c1cccc(C(F)(F)F)n1 [Compound I-60] | 2.75 | 40.5 | – | –
14 | COc1cc2nn(C3CC4(CCN(C(=O)C5CCN(c6cccc7c6C(=O)N(C6CCC(=O)NC6=O)C7=O)CC5)CC4)C3)cc2cc1NC(=O)c1cccc(C(F)(F)F)n1 (stereo not shown) [Compound I-25] | > 1000 | 20.4 | – | –
15 | O=C1CCC(N2C(=O)c3ccc(N4CCN(C(=O)CN5CCC(n6cc7cc(NC(=O)c8cccc(C(F)(F)F)n8)c(OC(F)(F)F)cc7n6)CC5)CC4)cc3C2=O)C(=O)N1 (stereo not shown) [II-2] | 32.8 | 34 | – | –
16 | COc1cc2nn(C3CC4(CCN(C(=O)C5CCN(c6ccc7c(c6)C(=O)N(C6CCC(=O)NC6=O)C7=O)CC5)CC4)C3)cc2cc1NC(=O)c1cnn2ccc(N3CCN(C)CC3)nc12 (stereo not shown) [Compound I-49] | 9.79 | 13.4 | – | –
17 | COc1cc2nn(C3CC4(CCN(C(=O)C5(C)CCN(c6ccc7c(c6)C(=O)N(C6CCC(=O)NC6=O)C7=O)CC5)CC4)C3)cc2cc1NC(=O)c1cccc(C(F)(F)F)n1 (stereo not shown) [Compound I-37] | 20.7 | 29.9 | – | –
18 | COc1cc2nn(C3CC4(CCN(C(=O)C5CCN(c6ccc7c(c6)C(=O)N([C@@H]6CCC(=O)NC6=O)C7=O)CC5)CC4)C3)cc2cc1NC(=O)c1cccc(C(F)(F)F)n1 [Compound I-58] | 2.67 | 35.1 | – | –
19 | COc1cc2nn(C3CCN(CC(=O)N4CCN(c5cccc6c5C(=O)N(C5CCC(=O)NC5=O)C6=O)CC4)CC3)cc2cc1NC(=O)c1cccc(C(F)(F)F)n1 (stereo not shown) [II-20] | 14.1 | 5.5 | – | –
20 | CC(C)(O)c1cc2nn(C3CCN(CC(=O)N4CCN(c5ccc6c(c5)C(=O)N(C5CCC(=O)NC5=O)C6=O)CC4)CC3)cc2cc1NC(=O)c1cccc(C(F)(F)F)n1 (stereo not shown) [II-6] | 9.99 | 8.2 | < 100 | 75~100%
